Tested on: human squamous carcinoma clone cancer cell line (SCC-1)
Experiment: In-vitro effect on SCC-1 cell growth (cell viability by Coulter Counter)
Assay type: cell-based
Conditions: for Cell Count/mL: SCC-1 cells, two days after treatment at 37° C., untreated (0 μM) 5.70 × 10^5
Procedure: The in-vitro effects of sample #01 1700 on human squamous carcinoma clone cancer cell line (SCC-1).
All cell culture plasticware was purchased from Fisher. Media and antibiotics were purchased from Gibco and Sigma.
Cell viability using a Coulter Counter is used to quantify toxicity. SCC-^1 cells are grown in MEM media containing 10% Fetal Bovine Serum, 100 units/ml penicillin, 100 1μ/ml streptomycin, and 2.5 μg/ml fungizone at 37° C. in a 5% CO2 incubator. A 6 well dish is inoculated to 2.0×10^5 cells/well in a total volume of media of 2 ml. Incubation occurs overnight and the cells are ready for treatment the next day.
Stock solution of sample #01 1700 is sterile filtered with a 0.22 μm low protein binding syringe filter. Dilutions are made in fresh MEM-10% FBS.
Two days after treatment at 37° C., cells are harvested and quantified using a Coulter Counter. To harvest, all media is removed and 1 ml of 1× trypsin solution is added per well. Tryspin is in the well for approximately 5 minutes at 37° C. After 5 minutes, 1 ml of fresh MEM-10% FBS is added per well. Upon vigorous mixing to ensure breakup of aggregate cells, dilutions are made in Isoton®II ready for cell counts. Each well is counted twice. Thus, duplicate wells plus duplicate counts yield 4 cell counts per parameter above.

## CC(N)C(=O)O.CC(N)C(=O)O.[Cl][Pt][Cl] (stereo not drawn) [#011700, PtCl2[CH3CH(NH)2COOH]2]
20 μM #011700
  Cell Count/mL: 600000 mL⁻¹
30 μM #011700
  Cell Count/mL: 580000 mL⁻¹
40 μM #011700
  Cell Count/mL: 520000 mL⁻¹
50 μM #011700
  Cell Count/mL: 440000 mL⁻¹
60 μM #011700
  Cell Count/mL: 380000 mL⁻¹
20-60 μM, two days after treatment
  inhibition of the growth of SCC-1 cells in-vitro: shows inhibition of the growth

From US6458832B1, “Carboplatin analogs for cancer treatment” (Unitech Pharmaceuticals, Inc., priority 1999, dated 2002)
